Here are results for 13 compounds from patent publication US6355615B1, “Desoxycyclodepsipeptides and their use for combatting endoparasites” (Bayer Aktiengesellschaft, priority 1997, dated 2002).

Test system in the first data set: not given
Experiment: not given
Conditions: not given
For orientation: melting point means the temperature, or range, at which the solid turns liquid. `CC(C)C[C@H]1C(=O)O[C@H](Cc2ccccc2)C(=O)N(C)[C@@H](CC(C)C)C(=O)O[C@H](C)CN(C)[C@@H](CC(C)C)C(=O)O[C@H](Cc2ccccc2)C(=O)N(C)[C@@H](CC(C)C)C(=O)O[C@H](C)CN1C` [Example 1-b, 8,20-dibenzyl-5,11,17,23-tetraisobutyl-2,4,10,14,16,22-hexamethyl-1,7,13,19-tetraoxa-4,10,16,22-tetraaza-cyclotetracosan-6,9,12,18,21,24-hexaone] gave a melting point of 149 to 150 °C.
Still for that read-out and setting: then `CC(C)C[C@H]1C(=O)O[C@H](Cc2ccc(OCc3ccco3)cc2)C(=O)N(C)[C@@H](CC(C)C)C(=O)O[C@H](C)CN(C)[C@@H](CC(C)C)C(=O)O[C@H](Cc2ccc(OCc3ccco3)cc2)C(=O)N(C)[C@@H](CC(C)C)C(=O)O[C@H](C)CN1C` (stereo in doubt), with 116 to 119 °C.

The test system of a further data set is Haemonchus contortus. As to the kind of experiment: Haemonchus contortus/sheep: nematode egg count in feces before and after oral treatment. Type of data set: in vivo. To be noted: Haemonchus contortus, po, read-out: effective dose (Dosis effectiva). On the procedure:
Haemonchus contortus/sheep
Sheep experimentally infected with Haemonchus contortus were treated after expiry of the prepatency time of the parasite.
The active compounds were administered orally in gelatin capsules as pure active ingredient.
The efficacy is determined by quantitatively counting the nematode eggs excreted with the feces before and after treatment.
Complete cessation of oviposition after treatment means that the nematodes have been expelled or are so damaged that they no longer produce eggs (Dosis effectiva).
Take `COCCN(CCOC)c1ccc(CC2OC(=O)C(CC(C)C)N(C)CC(C)OC(=O)C(CC(C)C)N(C)C(=O)C(Cc3ccc(N(CCOC)CCOC)cc3)OC(=O)C(CC(C)C)N(C)CC(C)OC(=O)C(CC(C)C)N(C)C2=O)cc1` (stereo not drawn) [Example 16-c, 8,20-bis-[4-bis-(β-methoxyethyl)aminobenzyl)-5,11,17,23-tetraisobutyl-2,4,10,14,16,22-hexamethyl-1,7,13,19-tetraoxa-4,10,16,22-tetraazacyclotetracosan-6,9,12,18,21,24-hexaone]: the minimal effective dose was under 1 mg/kg.
Still for that read-out and setting: to `CC(C)C[C@H]1C(=O)O[C@H](Cc2ccc(N3CCOCC3)cc2)C(=O)N(C)[C@@H](CC(C)C)C(=O)O[C@H](C)CN(C)[C@@H](CC(C)C)C(=O)O[C@H](Cc2ccccc2N2CCOCC2)C(=O)N(C)[C@@H](CC(C)C)C(=O)O[C@H](C)CN1C` [Example 6, 5,11,17,23-tetraisobutyl-2,4,10,14,16,22-hexamethyl-8-[-4-(N-morpholinyl)benzyl]-20-[2-(N-morpholinyl)benzyl]-1,7,13,19-tetraoxa-4,10,16,22-tetraaza-cyclotetracosan-6,9,12,18,21,24-hexaone] belongs under 1 mg/kg; to `CC(=O)N1CCN(S(=O)(=O)c2ccc(CC3OC(=O)C(CC(C)C)N(C)CC(C)OC(=O)C(CC(C)C)N(C)C(=O)C(Cc4ccc(S(=O)(=O)O)cc4)OC(=O)C(CC(C)C)N(C)CC(C)OC(=O)C(CC(C)C)N(C)C3=O)cc2)CC1` (centres unmarked) [Example 21-b, 8-[4-(4-acetylpiperazin-1-yl)-sulfonyl-benzyl]-20-(4-sulfobenzyl)-5,11,17,23-tetraisobutyl-2,4,10,14,16,22-hexamethyl-1,7,13,19-tetraoxa-4,10,16,22-tetraaza-cyclotetracosan-6,9,12,18,21,24-hexaone], 1 mg/kg.
For `CC(C)C[C@H]1C(=O)O[C@H](Cc2ccccc2)C(=O)N(C)[C@@H](CC(C)C)C(=O)O[C@H](C)CN(C)[C@@H](CC(C)C)C(=O)O[C@H](Cc2ccccc2)C(=O)N(C)[C@@H](CC(C)C)C(=O)O[C@H](C)CN1C` [Example 1-b, 8,20-dibenzyl-5,11,17,23-tetraisobutyl-2,4,10,14,16,22-hexamethyl-1,7,13,19-tetraoxa-4,10,16,22-tetraaza-cyclotetracosan-6,9,12,18,21,24-hexaone], the minimal effective dose was under 1 mg/kg.
Same read-out and setting: to `CC(C)C[C@H]1C(=O)O[C@H](Cc2ccc(-n3cccc3)cc2)C(=O)N(C)[C@@H](CC(C)C)C(=O)O[C@H](C)CN(C)[C@@H](CC(C)C)C(=O)O[C@H](Cc2ccc(-n3cccc3)cc2)C(=O)N(C)[C@@H](CC(C)C)C(=O)O[C@H](C)CN1C` [Example 14, 8,20-bis-[4-(1-pyrrolyl)-benzyl]-5,11,17,23-tetraisobutyl-2,4,10,14,16,22-hexamethyl-1,7,13,19-tetraoxa-4,10,16,22-tetraaza-cyclotetracosan-6,9,12,18,21,24-hexaone] belongs under 1 mg/kg.
The same measure, in the same setting: to `CC(C)C[C@H]1C(=O)O[C@H](Cc2ccc(NCc3ccco3)cc2)C(=O)N(C)[C@@H](CC(C)C)C(=O)O[C@H](C)CN(C)[C@@H](CC(C)C)C(=O)O[C@H](Cc2ccc(NCc3ccco3)cc2)C(=O)N(C)[C@@H](CC(C)C)C(=O)O[C@H](C)CN1C` [Example 19, 8,20-bis-N-[4-(2-furylmethylanino)benzyl]-5,11,17,23-tetraisobutyl-2,4,10,14,16,22-hexamethyl-1,7,13,19-tetraoxa-4,10,16,22-tetraaza-cyclotetracosan-6,9,12,18,21,24-hexaone] belongs under 1 mg/kg; to `CC(C)C[C@H]1C(=O)O[C@H](Cc2ccccc2)CN(C)[C@@H](CC(C)C)C(=O)O[C@H](C)CN(C)[C@@H](CC(C)C)C(=O)O[C@H](Cc2ccccc2)CN(C)[C@@H](CC(C)C)C(=O)O[C@H](C)CN1C` [Example 2, 8,20-dibenzyl-5,11,17,23-tetraisobutyl-2,4,10,14,16,22-hexamethyl-1,7,13,19-tetraoxa-4,10,16,22-tetraazacyclotetracosan-6,12,18,24-tetraone], under 1 mg/kg.

Still in this data set, the particulars now being: sheep experimentally infected with Haemonchus contortus; oral, gelatin capsules, pure active ingredient; complete cessation of oviposition after treatment.
`COCCNc1ccc(CC2OC(=O)C(CC(C)C)N(C)C(=O)C(C)OC(=O)C(CC(C)C)N(C)C(=O)C(Cc3ccc(N(CCOC)CCOC)cc3)OC(=O)C(CC(C)C)N(C)CC(C)OC(=O)C(CC(C)C)N(C)C2=O)cc1` (stereo not drawn) [Example 17-a, 8(or 20)-[4-bis-(β-methoxyethyl)aminobenzyl]-20(or 8)-(4-β-methoxyethylaminobenzyl)-5,11,17,23-tetraisobutyl-2,4,10,14,16,22-hexamethyl-1,7,13,19-tetraoxa-4,10,16,22-tetraaza-cyclotetracosan-6,9,12,15,18,21,24-heptaone]: the “effective dose (Dosis effectiva)” value is on record as under 1 mg/kg.

The data set is the same for the next values; noted with them: sheep experimentally infected with Haemonchus contortus; oral, gelatin capsules, pure active ingredient; complete cessation of oviposition after treatment; read-out: effective dose (Dosis effectiva).
As to `CC(C)C[C@H]1C(=O)O[C@H](Cc2ccc(N3CCOCC3)cc2)C(=O)N(C)[C@@H](CC(C)C)C(=O)O[C@H](C)CN(C)[C@@H](CC(C)C)C(=O)O[C@H](Cc2ccc(N3CCOCC3)cc2)C(=O)N(C)[C@@H](CC(C)C)C(=O)O[C@H](C)CN1C` [Example 5, 5,11,17,23-tetraisobutyl-2,4,10,14,16,22-hexamethyl-8,20-bis-[4-(N-morpholinyl)benzyl]-1,7,13,19-tetraoxa-4,10,16,22-tetraaza-cyclotetracosan-6,9,12,18,21,24-hexaone], the minimal effective dose is under 1 mg/kg.
Still for that read-out and setting: then `CC(C)CC1C(=O)OC(C)CN(C)C(CC(C)C)C(=O)OC(Cc2ccc(N3CCOCC3)cc2)CN(C)C(CC(C)C)C(=O)OC(C)CN(C)C(CC(C)C)C(=O)OC(Cc2ccc(N3CCOCC3)cc2)CN1C` (centres unmarked) [Example 7-d, 5,11,17,23-tetraisobutyl-2,4,10,14,16,22-hexamethyl-8,20-bis-[4-(N-morpholinyl)benzyl]-1,7,13,19-tetraoxa-4,10,16,22-tetraaza-cyclotetracosan-6,12,18,24-tetraone], with under 1 mg/kg.
For the compound `CC(C)CC1C(=O)OC(C)CN(C)C(CC(C)C)C(=O)OC(Cc2ccc(N3CCOCC3)cc2)C(=O)N(C)C(CC(C)C)C(=O)OC(C)CN(C)C(CC(C)C)C(=O)OC(Cc2ccc(N3CCOCC3)cc2)CN1C` (centres unmarked) [Example 7-c, 5,11,17,23-tetraisobutyl-2,4,10,14,16,22-hexamethyl-8,20-bis-[4-(N-morpholinyl)benzyl]-1,7,13,19-tetraoxa-4,10,16,22-tetraaza-cyclotetracosan-6,9,12,18,24-pentaone], the minimal effective dose is under 1 mg/kg.
On the same count and under the same terms, to `COCCNc1ccc(CC2OC(=O)C(CC(C)C)N(C)CC(C)OC(=O)C(CC(C)C)N(C)C(=O)C(Cc3ccc(NCCOC)cc3)OC(=O)C(CC(C)C)N(C)CC(C)OC(=O)C(CC(C)C)N(C)C2=O)cc1` (stereo not drawn) [Example 16-a, 8,20-bis-(4-β-methoxyethylaminobenzyl)-5,11,17,23-tetraisobutyl-2,4,10,14,16,22-hexamethyl-1,7,13,19-tetraoxa-4,10,16,22-tetraaza-cyclotetracosan-6,9,12,18,21,24-hexaone] belongs under 1 mg/kg.
